Reference: paper PMC7614683, “A small molecule PI3Kα activator for cardioprotection and neuroregeneration” (Nature, 2023)
Where two headings read alike, the source gives them in different places.

Experiments:
Test in all cases: SelectScreen Adapta
Type in all cases: biochemical
PIK3C2A (PI3K-C2 alpha) = PIK3C2A (PI3K-C2 alpha) (Homo sapiens, UniProt O00443)
Protocol: (§1) 133 protein kinases and 7 lipid kinases were counterscreened, with 1938 used at 1 μM, using the Adapta, Lantha and Z-LYTE assays (SelectScreen Kinase Profiling Service; Thermofisher – experimental details of these assays can be found here: https://www.thermofisher.com/uk/en/home/industrial/pharma-biopharma/drug-discovery-development/target-and-lead-identification-and-validation/kinasebiology/kinase-activity-assays.html. The tree represention in KinMap[59] generated courtesy of Cell Signaling Technology, Inc. (www.cellsignal.com). mTORC1 (mTOR/RAPTOR/LST8) protein complex and ATM kinase and substrates were produced as previously described[57],[60]. Screening of 1938 was conducted using SuperSep Phos-Tag 50 μmol/l 100 x 100 x 6.6 mm 17-well (192-18001/199-18011) gels. For ATM assays, 100 nM ATM was incubated for 30 min at 30°C with 5 μM GST-p53 and 1 mM ATP, in the absence or presence of 200 μM 1938 in ATM Kinase Buffer (50 mM HEPES pH 7.5, 100 mM NaCl, 10% glycerol, 2 mM […], 5 mM MgCl2). As a positive control for ATM activation, the same reaction was carried out with 100 nM ATM/5 μM GST-p53/1 mM ATP in the presence of 100 nM Mre11-Rad50-Nbs1 (MRN) complex, a known activator of ATM[61]. For mTORC1 assays, 50 nM mTORC1 complex (mTOR/LST8/RAPTOR) was incubated for 3 h at 30°C with 15 μM 4E-BP1, 10 mM MgCl2 and 250 μM ATP, in the absence or presence of 200 μM 1938. As a ‘positive’ control, a higher concentration (150 nM) of mTORC1 complex (mTOR/LST8/RAPTOR) was incubated for 3 h at 30°C with 15 μM 4E-BP1, 10 mM MgCl2 and 250 μM ATP. Kinase reactions were quenched by addition of SDS-PAGE Loading Buffer (as per manufacturer’s instructions) and freezing at -20°C before being run on the Phos-tag gels at 150 V for 90 min. Gels were then stained using InstantBlue™ Coomassie, and quantified using BioRad Image Lab Software. Kinase assays were carried out in triplicate.

PI4KB (PI4K beta) = PI4KB (PI4K beta) (Homo sapiens, UniProt Q9UBF8)
Chain of PI4KB (PI4K beta) (Q9UBF8 whole entry): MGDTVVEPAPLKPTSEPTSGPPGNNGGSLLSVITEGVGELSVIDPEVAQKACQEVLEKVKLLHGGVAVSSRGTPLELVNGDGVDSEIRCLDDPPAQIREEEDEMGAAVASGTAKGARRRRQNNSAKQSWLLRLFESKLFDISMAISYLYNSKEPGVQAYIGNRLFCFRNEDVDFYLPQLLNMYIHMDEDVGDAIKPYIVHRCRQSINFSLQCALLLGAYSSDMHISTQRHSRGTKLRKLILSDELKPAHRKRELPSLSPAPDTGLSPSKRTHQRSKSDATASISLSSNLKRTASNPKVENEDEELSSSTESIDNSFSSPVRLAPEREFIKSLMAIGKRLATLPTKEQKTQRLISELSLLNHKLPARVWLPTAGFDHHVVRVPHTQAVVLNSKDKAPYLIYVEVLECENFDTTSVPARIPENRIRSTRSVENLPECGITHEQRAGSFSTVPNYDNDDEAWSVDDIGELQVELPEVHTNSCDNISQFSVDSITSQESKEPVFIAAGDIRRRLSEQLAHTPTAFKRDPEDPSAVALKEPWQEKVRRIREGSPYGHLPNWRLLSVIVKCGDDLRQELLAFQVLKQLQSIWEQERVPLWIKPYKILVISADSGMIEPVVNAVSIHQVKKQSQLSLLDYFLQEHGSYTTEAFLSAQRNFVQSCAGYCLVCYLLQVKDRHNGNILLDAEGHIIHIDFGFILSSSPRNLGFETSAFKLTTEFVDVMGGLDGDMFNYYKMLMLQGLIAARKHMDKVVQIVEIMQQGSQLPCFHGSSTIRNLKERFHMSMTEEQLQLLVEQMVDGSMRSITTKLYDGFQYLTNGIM
Protocol: as §1

[1] = target: PIK3CB/PIK3R1 (p110 beta/p85 alpha) (Homo sapiens, UniProt P42338)
Chain of PIK3CB/PIK3R1 (p110 beta/p85 alpha) (P42338 whole entry): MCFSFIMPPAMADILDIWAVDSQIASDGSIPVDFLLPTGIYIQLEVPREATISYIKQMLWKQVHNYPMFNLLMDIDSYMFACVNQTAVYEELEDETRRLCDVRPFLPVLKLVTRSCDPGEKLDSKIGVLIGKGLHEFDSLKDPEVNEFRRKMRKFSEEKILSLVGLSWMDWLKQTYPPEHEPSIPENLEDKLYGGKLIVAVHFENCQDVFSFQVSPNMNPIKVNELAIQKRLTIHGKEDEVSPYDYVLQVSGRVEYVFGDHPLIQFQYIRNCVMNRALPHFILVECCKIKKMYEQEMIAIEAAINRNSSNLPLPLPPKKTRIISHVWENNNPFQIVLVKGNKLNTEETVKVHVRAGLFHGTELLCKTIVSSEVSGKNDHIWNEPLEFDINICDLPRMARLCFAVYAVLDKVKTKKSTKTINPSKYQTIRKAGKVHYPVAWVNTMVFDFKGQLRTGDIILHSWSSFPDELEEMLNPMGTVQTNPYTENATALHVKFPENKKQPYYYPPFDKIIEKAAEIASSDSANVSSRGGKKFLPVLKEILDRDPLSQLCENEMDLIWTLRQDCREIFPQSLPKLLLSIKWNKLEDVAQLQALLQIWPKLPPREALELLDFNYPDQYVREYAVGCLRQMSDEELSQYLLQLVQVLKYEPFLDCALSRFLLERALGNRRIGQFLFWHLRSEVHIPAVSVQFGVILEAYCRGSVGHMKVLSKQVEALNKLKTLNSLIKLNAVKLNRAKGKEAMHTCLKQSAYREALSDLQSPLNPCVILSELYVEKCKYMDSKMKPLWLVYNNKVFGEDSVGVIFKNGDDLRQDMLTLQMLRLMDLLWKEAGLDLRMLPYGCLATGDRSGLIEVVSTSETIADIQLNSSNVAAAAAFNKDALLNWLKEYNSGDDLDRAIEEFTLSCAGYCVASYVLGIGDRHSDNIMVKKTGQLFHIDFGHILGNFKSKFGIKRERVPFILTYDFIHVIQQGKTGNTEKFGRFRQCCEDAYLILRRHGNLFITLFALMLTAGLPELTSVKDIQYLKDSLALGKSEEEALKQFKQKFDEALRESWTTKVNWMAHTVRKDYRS
Chain of PIK3CB/PIK3R1 (p110 beta/p85 alpha) (P27986 whole entry partner): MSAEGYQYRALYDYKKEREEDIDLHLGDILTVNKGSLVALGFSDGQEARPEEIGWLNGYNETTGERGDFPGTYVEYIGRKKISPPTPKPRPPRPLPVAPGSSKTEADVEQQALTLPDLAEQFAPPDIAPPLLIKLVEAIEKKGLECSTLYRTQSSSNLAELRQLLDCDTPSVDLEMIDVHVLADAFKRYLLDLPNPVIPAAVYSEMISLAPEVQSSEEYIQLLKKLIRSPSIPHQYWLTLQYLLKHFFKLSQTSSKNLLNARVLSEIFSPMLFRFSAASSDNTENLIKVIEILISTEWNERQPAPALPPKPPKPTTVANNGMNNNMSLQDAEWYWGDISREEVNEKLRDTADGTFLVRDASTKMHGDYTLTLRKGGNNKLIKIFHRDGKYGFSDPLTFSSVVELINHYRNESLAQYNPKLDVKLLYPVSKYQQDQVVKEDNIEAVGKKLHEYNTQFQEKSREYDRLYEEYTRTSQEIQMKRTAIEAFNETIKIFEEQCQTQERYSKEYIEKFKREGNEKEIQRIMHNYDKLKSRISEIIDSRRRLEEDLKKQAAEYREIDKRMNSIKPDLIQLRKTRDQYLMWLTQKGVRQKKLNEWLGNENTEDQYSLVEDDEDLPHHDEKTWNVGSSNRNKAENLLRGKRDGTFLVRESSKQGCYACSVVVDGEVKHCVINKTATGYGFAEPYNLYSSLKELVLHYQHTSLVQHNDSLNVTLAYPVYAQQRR
Protocol: as §1

CDK7/cyclin H/MNAT1 = CDK7/cyclin H/MNAT1 (Homo sapiens, UniProt P50613)
Protocol: as §1

[2] = target: PIK3CA/PIK3R1 (p110 alpha/p85 alpha) (Homo sapiens, UniProt P42336)
Protocol: as §1

GSG2 (Haspin) = target: T1, GSG2 (Haspin) (Homo sapiens, UniProt Q8TF76)
T1 sequence (Q8TF76 1-798): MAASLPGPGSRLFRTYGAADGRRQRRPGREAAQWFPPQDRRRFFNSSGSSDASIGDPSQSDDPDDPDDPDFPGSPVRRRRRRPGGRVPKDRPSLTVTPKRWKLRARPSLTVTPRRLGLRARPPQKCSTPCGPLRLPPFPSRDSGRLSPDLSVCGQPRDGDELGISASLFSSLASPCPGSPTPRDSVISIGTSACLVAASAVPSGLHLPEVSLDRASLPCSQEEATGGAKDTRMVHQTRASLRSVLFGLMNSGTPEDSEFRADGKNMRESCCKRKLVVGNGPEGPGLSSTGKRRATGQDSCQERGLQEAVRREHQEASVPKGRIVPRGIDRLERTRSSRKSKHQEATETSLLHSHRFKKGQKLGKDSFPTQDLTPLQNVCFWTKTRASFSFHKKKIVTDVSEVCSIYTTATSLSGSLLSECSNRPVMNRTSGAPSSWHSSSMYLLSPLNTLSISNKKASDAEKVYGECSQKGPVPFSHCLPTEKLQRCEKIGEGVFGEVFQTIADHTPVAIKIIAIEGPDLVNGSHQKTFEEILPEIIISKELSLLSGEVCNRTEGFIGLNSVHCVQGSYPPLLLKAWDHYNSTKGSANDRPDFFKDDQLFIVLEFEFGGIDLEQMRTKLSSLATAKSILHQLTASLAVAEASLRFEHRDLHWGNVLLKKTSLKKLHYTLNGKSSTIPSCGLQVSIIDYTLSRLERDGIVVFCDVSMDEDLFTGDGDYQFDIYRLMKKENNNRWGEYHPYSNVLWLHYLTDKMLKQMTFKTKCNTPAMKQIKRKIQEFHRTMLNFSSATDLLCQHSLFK
Protocol: as §1

IRAK1 = IRAK1 (Homo sapiens, UniProt P51617)
Chain of IRAK1 (P51617 whole entry): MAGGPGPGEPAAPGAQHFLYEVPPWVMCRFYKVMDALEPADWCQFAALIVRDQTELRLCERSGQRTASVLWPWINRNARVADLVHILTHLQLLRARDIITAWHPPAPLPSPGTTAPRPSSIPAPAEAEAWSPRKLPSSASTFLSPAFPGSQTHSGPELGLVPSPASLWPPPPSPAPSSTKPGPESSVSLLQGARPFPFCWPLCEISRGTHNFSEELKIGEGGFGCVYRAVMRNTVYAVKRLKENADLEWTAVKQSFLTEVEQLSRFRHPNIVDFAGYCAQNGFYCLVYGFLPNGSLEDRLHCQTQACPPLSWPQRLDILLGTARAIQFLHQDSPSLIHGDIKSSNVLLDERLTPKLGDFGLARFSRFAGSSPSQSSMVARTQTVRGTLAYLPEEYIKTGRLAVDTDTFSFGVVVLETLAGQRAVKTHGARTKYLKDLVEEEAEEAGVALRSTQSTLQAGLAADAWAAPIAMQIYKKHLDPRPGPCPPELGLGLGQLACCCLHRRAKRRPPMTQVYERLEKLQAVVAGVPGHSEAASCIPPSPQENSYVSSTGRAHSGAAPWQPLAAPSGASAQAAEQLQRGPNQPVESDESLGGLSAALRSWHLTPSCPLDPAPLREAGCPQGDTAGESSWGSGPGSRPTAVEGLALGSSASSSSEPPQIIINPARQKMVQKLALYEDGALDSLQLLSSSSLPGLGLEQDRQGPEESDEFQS
Protocol: as §1

Chain of PIK3C2A (PI3K-C2 alpha) (O00443 whole entry): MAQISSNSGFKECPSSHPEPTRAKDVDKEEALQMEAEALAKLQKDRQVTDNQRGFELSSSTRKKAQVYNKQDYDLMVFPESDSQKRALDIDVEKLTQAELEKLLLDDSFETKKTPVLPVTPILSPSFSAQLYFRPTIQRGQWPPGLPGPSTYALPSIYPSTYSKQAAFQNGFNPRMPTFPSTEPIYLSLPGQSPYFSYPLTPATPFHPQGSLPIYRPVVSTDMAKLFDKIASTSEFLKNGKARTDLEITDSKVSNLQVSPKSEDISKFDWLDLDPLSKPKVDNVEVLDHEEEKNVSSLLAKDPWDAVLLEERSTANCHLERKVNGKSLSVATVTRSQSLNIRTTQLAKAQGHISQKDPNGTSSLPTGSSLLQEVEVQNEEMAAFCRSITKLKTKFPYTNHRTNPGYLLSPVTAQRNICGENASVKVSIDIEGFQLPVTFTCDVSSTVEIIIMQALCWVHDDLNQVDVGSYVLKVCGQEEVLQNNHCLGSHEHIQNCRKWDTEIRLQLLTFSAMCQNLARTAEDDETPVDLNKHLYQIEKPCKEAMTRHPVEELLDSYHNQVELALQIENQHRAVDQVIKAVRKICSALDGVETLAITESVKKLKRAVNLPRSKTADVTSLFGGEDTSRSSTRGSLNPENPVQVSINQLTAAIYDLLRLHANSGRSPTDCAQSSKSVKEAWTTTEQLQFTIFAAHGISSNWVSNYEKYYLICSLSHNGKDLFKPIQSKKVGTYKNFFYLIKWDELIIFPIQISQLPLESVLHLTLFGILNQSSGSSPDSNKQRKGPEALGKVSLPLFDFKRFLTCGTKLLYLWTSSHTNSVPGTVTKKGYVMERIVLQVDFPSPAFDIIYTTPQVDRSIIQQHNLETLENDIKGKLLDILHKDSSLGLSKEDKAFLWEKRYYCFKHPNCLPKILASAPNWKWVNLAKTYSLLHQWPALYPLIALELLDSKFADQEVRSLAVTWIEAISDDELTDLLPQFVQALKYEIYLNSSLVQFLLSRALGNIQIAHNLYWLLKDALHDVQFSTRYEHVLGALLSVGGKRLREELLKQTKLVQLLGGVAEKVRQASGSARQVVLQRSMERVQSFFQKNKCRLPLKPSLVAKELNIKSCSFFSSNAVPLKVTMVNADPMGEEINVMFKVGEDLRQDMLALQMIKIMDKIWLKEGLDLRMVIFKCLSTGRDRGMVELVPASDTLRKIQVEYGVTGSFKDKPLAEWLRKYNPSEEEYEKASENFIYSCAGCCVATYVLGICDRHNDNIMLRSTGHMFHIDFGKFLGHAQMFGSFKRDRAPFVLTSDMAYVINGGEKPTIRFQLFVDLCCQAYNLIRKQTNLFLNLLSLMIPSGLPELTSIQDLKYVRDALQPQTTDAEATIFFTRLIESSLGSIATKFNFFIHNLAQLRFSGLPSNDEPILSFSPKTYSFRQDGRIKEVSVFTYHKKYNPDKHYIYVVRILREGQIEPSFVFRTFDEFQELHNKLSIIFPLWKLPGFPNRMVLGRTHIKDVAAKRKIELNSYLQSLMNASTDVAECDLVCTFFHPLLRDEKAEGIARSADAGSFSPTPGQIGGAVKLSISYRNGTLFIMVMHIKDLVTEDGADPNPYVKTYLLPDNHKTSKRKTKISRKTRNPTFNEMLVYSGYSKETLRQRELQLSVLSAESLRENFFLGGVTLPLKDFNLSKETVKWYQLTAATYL

## CCN1CCN(c2ccc(Nc3cc(Nc4cccc5c4N(C(C)=O)CC5)ccn3)cc2)CC1 [Compound 1938]
PIK3C2A (PI3K-C2 alpha); read-out: % Inhibition Point 1
  inhibition at 1 µM: 2%
PIK3C2A (PI3K-C2 alpha); read-out: % Inhibition Point 2
  inhibition at 1 µM: 3.23%
PIK3C2A (PI3K-C2 alpha); read-out: % Inhibition mean
  inhibition at 1 µM: 2.57%
PI4KB (PI4K beta); read-out: % Inhibition Point 1
  inhibition at 1 µM: -1.1%
PI4KB (PI4K beta); read-out: % Inhibition Point 2
  inhibition at 1 µM: 0.786%
PI4KB (PI4K beta); read-out: % Inhibition mean
  inhibition at 1 µM: -0.157%
[1]; read-out: % Inhibition Point 1
  inhibition at 1 µM: 2.51%
[1]; read-out: % Inhibition Point 2
  inhibition at 1 µM: 0.803%
[1]; read-out: % Inhibition mean
  inhibition at 1 µM: 1.66%
CDK7/cyclin H/MNAT1; read-out: % Inhibition Point 1
  inhibition at 1 µM: -6.51%
CDK7/cyclin H/MNAT1; read-out: % Inhibition Point 2
  inhibition at 1 µM: 4%
CDK7/cyclin H/MNAT1; read-out: % Inhibition mean
  inhibition at 1 µM: -1.27%
[2]; read-out: % Inhibition Point 1
  inhibition at 1 µM: -19%
[2]; read-out: % Inhibition Point 2
  inhibition at 1 µM: -20%
[2]; read-out: % Inhibition mean
  inhibition at 1 µM: -19%
GSG2 (Haspin); read-out: % Inhibition Point 1
  inhibition at 1 µM: -18%
GSG2 (Haspin); read-out: % Inhibition Point 2
  inhibition at 1 µM: 2.17%
GSG2 (Haspin); read-out: % Inhibition mean
  inhibition at 1 µM: -8%
IRAK1; read-out: % Inhibition Point 1
  inhibition at 1 µM: 29%
IRAK1; read-out: % Inhibition Point 2
  inhibition at 1 µM: 20%
IRAK1; read-out: % Inhibition mean
  inhibition at 1 µM: 25%
